Laboratory results as given in US6465457B1 (priority 1991, dated 2002).
Like-named read-outs stand apart in the source and are kept apart here.

Legend:
Format in all cases: in vivo
Septoria nodorum (Wheat) = experiment: Foliar fungal disease test on plants: Septoria nodorum (Wheat); settings: one or two days before inoculation
[1] = system: Erysiphe graminis tritici (Wheat); experiment: Foliar fungal disease test on plants: Erysiphe graminis tritici (Wheat); settings: plants inoculated 24 hours before treatment
[2] = system: Plasmopara viticola (Vines); experiment: Foliar fungal disease test on plants: Plasmopara viticola (Vines); settings: one or two days before inoculation
[3] = system: Venturia inaequalis (Apples); experiment: Foliar fungal disease test on plants: Venturia inaequalis (Apples); settings: one or two days before inoculation
[4] = system: Puccinia recondita (Wheat); experiment: Foliar fungal disease test on plants: Puccinia recondita (Wheat)
Description: The compounds were tested against a variety of foliar fungal diseases of plants. The technique employed was as follows.
The plants were grown in John Innes Potting Compost (No 1 or 2) in 4 cm diameter minipots. The test compounds were formulated either by bead milling with aqueous DISPERSOL T or as a solution in acetone or acetone/ethanol which was diluted to the required concentration immediately before use. The formulations (100 ppm active ingredient) were sprayed on to the foliage or applied to the roots of the plants in the soil. The sprays were applied to maximum retention and the root drenches to a final concentration equivalent to approximately 40 ppm a.i. in dry soil. TWEEN 20 was added to give a final concentration of 0.05% when the sprays were applied to cereals.
[…] An exception was the test on Erysiphe graminis in which the plants were inoculated 24 hours before treatment. Foliar pathogens were applied by spray as zoosporangial suspensions onto the leaves of test plants. After inoculation, the plants were put into an appropriate environment to allow infection to proceed and then incubated until the disease was ready for assessment. The period between inoculation and assessment varied from four to fourteen days according to the disease and environment.
The disease level present (i.e. leaf area covered by actively sporulating disease) on each of the treated plants was recorded using the following assessment scale:
Each assessment was then expressed as a percentage of the level of disease present on the untreated control plants. This calculated value is referred to as a POCO (Percentage of Control) value. An example of a typical calculation is as follows:
Disease level on untreated control=90
Disese level on treated plant=30 [formula]
This calculated POCO value is then rounded to the nearest of the values in the 9-point assessment scale shown above. In this particular example, the POCO value would be rounded to 30. If the calculated POCO falls exactly mid-way between two of the points, it is rounded to the lower of the two values.

[5] = system: Thanatephorus cucumeries (Rice); experiment: Foliar fungal disease test on plants: Thanatephorus cucumeries (Rice); settings: one or two days before inoculation
[6] = system: Phytophthora infestans (Tomatoes); settings: one or two days before inoculation
[7] = system: Pyricularia oryzae (Rice); settings: one or two days before inoculation
[8] = 100 ppm a.i. foliar spray or root drench (approx. 40 ppm in dry soil)
[9] = 100 ppm a.i. foliar spray or root drench, plants inoculated with Puccinia recondita 48 hours before treatment
[10] = 10 ppm foliar spray only, plants inoculated with Puccinia recondita 48 hours before treatment

| Compound | POCO (Percentage of Control) disease level, Septoria nodorum (Wheat) (Septoria nodorum (Wheat); [8]) | POCO (Percentage of Control) disease level, Erysiphe graminis tritici (Wheat) [1, 8] | POCO (Percentage of Control) disease level, Plasmopara viticola (Vines) [2, 8] | POCO (Percentage of Control) disease level, Venturia inaequalis (Apples) [3, 8] | POCO (Percentage of Control) disease level, Puccinia recondita (Wheat) ([4]; 100 ppm a.i. foliar spray or root drench (approx. 40 ppm in dry soil), one or two days before inoculation) | POCO (Percentage of Control) disease level, Thanatephorus cucumeries (Rice) [5, 8] | POCO (Percentage of Control) disease level, Phytophthora infestans (Tomatoes) [6, 8] | POCO (Percentage of Control) disease level, Pyricularia oryzae (Rice) [7, 8] | POCO (Percentage of Control) disease level, Puccinia recondita (Wheat) [4, 9] | POCO (Percentage of Control) disease level, Septoria nodorum (Wheat) (Septoria nodorum (Wheat); 10 ppm foliar spray only) | POCO (Percentage of Control) disease level, Erysiphe graminis tritici (Wheat) ([1]; 10 ppm foliar spray only) | POCO (Percentage of Control) disease level, Plasmopara viticola (Vines) ([2]; 10 ppm foliar spray only) | POCO (Percentage of Control) disease level, Venturia inaequalis (Apples) ([3]; 10 ppm foliar spray only) | POCO (Percentage of Control) disease level, Puccinia recondita (Wheat) [4, 10] | POCO (Percentage of Control) disease level, Thanatephorus cucumeries (Rice) ([5]; 10 ppm foliar spray only) | POCO (Percentage of Control) disease level, Phytophthora infestans (Tomatoes) ([6]; 10 ppm foliar spray only) | POCO (Percentage of Control) disease level, Pyricularia oryzae (Rice) ([7]; 10 ppm foliar spray only) |
| --- | --- | --- | --- | --- | --- | --- | --- | --- | --- | --- | --- | --- | --- | --- | --- | --- | --- |
| CO/C=C(/C(=O)OC)c1ccccc1COC(=O)Nc1cccc(C(F)(F)F)c1 [2 (1), (E)-methyl 3-methoxy-2-[2-((3-trifluoromethylphenyl)carbamoyloxymethyl)phenyl]-propenoate] | 20 (20 and 24 = 10.1-20% disease present) | 60 (60 = 30.1-60% disease present) | 10 (10 = 5.1-10% disease present) | 0 (0 = 0% disease present) | 10 (10 = 5.1-10% disease present) | 60 (60 = 30.1-60% disease present) | 10 (10 = 5.1-10% disease present) | 5 (5 = 3.1-5% disease present) | – | – | – | – | – | – | – | – | – |
| C#CCN(C(=O)OCc1ccccc1C(=COC)C(=O)OC)c1ccccc1OC [16 (15)] | 10 (10 = 5.1-10% disease present) | 0 (0 = 0% disease present) | 0 (0 = 0% disease present) | 1 (1 = 0.1-1% disease present) | – | 0 (0 = 0% disease present) | 5 (5 = 3.1-5% disease present) | 0 (0 = 0% disease present) | 60+ (60 = 30.1-60% disease present) | – | – | – | – | – | – | – | – |
| COC=C(C(=O)OC)c1ccccc1COC(=S)Oc1ccccc1 [5 (12)] | – | – | – | – | – | – | – | – | – | 90 (90 and 94 = 60.1-100% disease present) | 60 (60 = 30.1-60% disease present) | 3 (3 = 1.1-3% disease present) | 0 (0 = 0% disease present) | 90+ (90 and 94 = 60.1-100% disease present) | 60 (60 = 30.1-60% disease present) | 90 (90 and 94 = 60.1-100% disease present) | 60 (60 = 30.1-60% disease present) |
| COC=C(C(=O)OC)c1ccccc1COC(=O)n1ccc2ccccc21 [1 (133)] | – | – | – | – | – | – | – | – | – | 90 (90 and 94 = 60.1-100% disease present) | 90 (90 and 94 = 60.1-100% disease present) | 0 (0 = 0% disease present) | 30 (30 = 20.1-30% disease present) | 90+ (90 and 94 = 60.1-100% disease present) | 60 (60 = 30.1-60% disease present) | 90 (90 and 94 = 60.1-100% disease present) | 90 (90 and 94 = 60.1-100% disease present) |
| COC=C(C(=O)OC)c1ccccc1COC(=O)N(C)c1ccc(F)c(Cl)c1 [104 (2)] | 0 (0 = 0% disease present) | 0 (0 = 0% disease present) | 0 (0 = 0% disease present) | 0 (0 = 0% disease present) | – | 0 (0 = 0% disease present) | 10 (10 = 5.1-10% disease present) | 0 (0 = 0% disease present) | 0+ (0 = 0% disease present) | – | – | – | – | – | – | – | – |
| COC=C(C(=O)OC)c1ccccc1COC(=O)Nc1ccccc1C(F)(F)F [18 (1)] | 90 (90 and 94 = 60.1-100% disease present) | 90 (90 and 94 = 60.1-100% disease present) | 0 (0 = 0% disease present) | 3 (3 = 1.1-3% disease present) | – | 90 (90 and 94 = 60.1-100% disease present) | 90 (90 and 94 = 60.1-100% disease present) | 60 (60 = 30.1-60% disease present) | 90+ (90 and 94 = 60.1-100% disease present) | – | – | – | – | – | – | – | – |
| CCN(C(=O)OCc1ccccc1C(=COC)C(=O)OC)c1ccc(F)c(F)c1 [28 (3)] | 0 (0 = 0% disease present) | 0 (0 = 0% disease present) | 0 (0 = 0% disease present) | 0 (0 = 0% disease present) | – | 0 (0 = 0% disease present) | 20 (20 and 24 = 10.1-20% disease present) | 1 (1 = 0.1-1% disease present) | 0+ (0 = 0% disease present) | – | – | – | – | – | – | – | – |
| CNC(=O)C(=NOC)c1ccccc1COC(=O)N(C)c1ccccc1 [5 (66)] | 5 (5 = 3.1-5% disease present) | 0 (0 = 0% disease present) | 0 (0 = 0% disease present) | 0 (0 = 0% disease present) | – | 0 (0 = 0% disease present) | 0 (0 = 0% disease present) | 0 (0 = 0% disease present) | 10+ (10 = 5.1-10% disease present) | – | – | – | – | – | – | – | – |
| COC=C(C(=O)OC)c1ccccc1COC(=O)Nc1cc(F)ccc1F [27 (1)] | – | – | – | – | – | – | – | – | – | 90 (90 and 94 = 60.1-100% disease present) | 90 (90 and 94 = 60.1-100% disease present) | 90 (90 and 94 = 60.1-100% disease present) | 90 (90 and 94 = 60.1-100% disease present) | 90+ (90 and 94 = 60.1-100% disease present) | 90 (90 and 94 = 60.1-100% disease present) | 90 (90 and 94 = 60.1-100% disease present) | 30 (30 = 20.1-30% disease present) |
| COC=C(C(=O)OC)c1ccccc1COC(=O)N1CCc2ccccc21 [5 (133)] | – | – | – | – | – | – | – | – | – | 90 (90 and 94 = 60.1-100% disease present) | 60 (60 = 30.1-60% disease present) | 90 (90 and 94 = 60.1-100% disease present) | 90 (90 and 94 = 60.1-100% disease present) | 90+ (90 and 94 = 60.1-100% disease present) | 90 (90 and 94 = 60.1-100% disease present) | 90 (90 and 94 = 60.1-100% disease present) | 90 (90 and 94 = 60.1-100% disease present) |
| COC=C(C(=O)OC)c1ccccc1COC(=O)N(C)c1ccc(F)c(F)c1 [28 (2)] | 0 (0 = 0% disease present) | 0 (0 = 0% disease present) | 0 (0 = 0% disease present) | 0 (0 = 0% disease present) | – | 0 (0 = 0% disease present) | 10 (10 = 5.1-10% disease present) | 0 (0 = 0% disease present) | 0+ (0 = 0% disease present) | – | – | – | – | – | – | – | – |
